Test results reported in patent publication US6713491B2, “Heterocyclic derivatives” (priority 1999, dated 2004).

Columns and labels:
[1] = test system: kainic acid (kainate) receptor; assay: selectivity study at other ionotropic excitatory amino acid receptors: kainate; type: binding
Experimental: (§1) The potent and selective action of the compound of the invention at the strychnine-insensitive glycine binding site present on the NMDA receptor complex may be readily determined using conventional test procedures. Thus the ability to bind at the strychnine insensitive glycine binding site was determined using the procedure of Kishimoto H et al., J Neurochem 1981, 37, 1015-1024. The selectivity of the action of compounds of the invention for the strychnine insensitive glycine site was confirmed in studies at other ionotropic known excitatory amino acid receptors.

[2] = biological target: T1, strychnine insensitive glycine binding site associated with the NMDA receptor complex (Rattus norvegicus, UniProt P35439); assay: binding at the strychnine insensitive glycine binding site (procedure of Kishimoto H et al.)
T1 construct: from tissue; host or cells: rat CNS membranes (inferred from the cited procedure)
Experimental: as §1

[3] = test system: a-amino-3-hydroxy-5-methyl-4-isoxazole-proprionic acid (AMPA) receptor; assay: selectivity study at other ionotropic excitatory amino acid receptors: AMPA; type: binding
Experimental: as §1

mice = assay: tolerability on administration to mice; type: in vivo; settings: pharmacological active doses
NMDA binding site = assay: selectivity study at other ionotropic excitatory amino acid receptors: NMDA binding site
Experimental: as §1

`CNC[C@H](O)[C@@H](O)[C@H](O)[C@H](O)CO.O=C(O)C1CC(=C2CCN(c3ccccc3)C2=O)c2ccc(Cl)cc2N1` (single isomer, unassigned; enantiomer a) [compound of the invention, meglumine salt of enantiomer A of 7-chloro-4-(2-oxo-1-phenyl-3-pyrrolidinylidene)-1,2,3,4-tetrahydro-2-quinolinecarboxylic acid] was tested, and the “affinity for the kainic acid (kainate) receptor” value [1] was “little or no affinity”, the “antagonism at the strychnine insensitive glycine binding site” value [2] was “potent antagonist” and the “affinity for the AMPA receptor” value [3] was “little or no affinity”. For the same compound, the untoward effects (mice) was “No untoward effects” and the “affinity at the NMDA binding site” value (NMDA binding site) was “little or no affinity”.
